Laboratory results as given in patent publication US12115393B2, “Methods for setting parameters of a neurostimulation device and associated devices” (INSTITUT NATIONAL DE LA SANTE ET DE LA RECHERCHE MEDICALE …, priority 2019, dated 2024).

Assays:
Assay type in all cases: in vivo
[1] = tested on: unpredictable chronic mild stress (UCMS) mouse model; test: reward-maze test in UCMS mice
Method: (§1) From day 7 on, mice from the Veh (vehicle) and the Flx (fluoxetine) groups were chronically treated through drinking water respectively with water alone (n=12) or 15 mg/kg fluoxetine (n=12).
(§2) The main cohort of fifty-three mice followed the UCMS regimen from day 0 to day 35, as described previously. Briefly, mice were isolated in 24×11×12 cm cages without environmental enrichment and submitted to daily random socio-environmental stressors including: exposition to another mouse bedding, removal of sawdust, contention and light dark cycle perturbations.
(§3) Pharmacological treatments (15 mg/kg fluoxetine) were given from day 7 on to achieve chronic administration at week 5. The chronic ultrasound neurostimulation treatment was given during the fifth week of the UCMS (stressors: 08:00-12:00 AM, treatment: 02:00 PM). […]
(§4) Behaviors were assessed during the dark phase of the light-dark cycle, i.e., the active, awoken phase for the animals. The effects of ultrasound neurostimulation were assessed against those of the fluoxetine treatment from day 38 to day 43 with 1) the nest-building test, 2) the reward-maze test and 3) the open field task.
2. […] The latency to reach the reward and its consumption were measured for up to 5 min.

[2] = tested on: unpredictable chronic mild stress (UCMS) mouse model; test: open-field task in UCMS mice; details: 15 mg/kg fluoxetine in drinking water from day 7, tested day 43, p<0.10
Method: as §1, §2
Pharmacological treatments (15 mg/kg fluoxetine) were given from day 7 on to achieve chronic administration at week 5. […]
as §4
3. […] The latency to reach the center area (d=10 cm) and the number of center-crossings were measured for up to 5 min. The movements of the mice were recorded and tracked with the software EthoVision XT (Noldus Information Technology, Netherlands) to generate individual heat maps, color-coded for position frequencies over the duration of the test.

[3] = tested on: unpredictable chronic mild stress (UCMS) mouse model; test: nest-building test in UCMS mice; details: 15 mg/kg fluoxetine chronically through drinking water from day 7, tested day 38, score max. 5
Method: as §1, §2, §3, §4
1. […] After 5 hours in standard condition, the state of the nest, built in cotton, was scored on a predefined scale. […]

CNCCC(Oc1ccc(C(F)(F)F)cc1)c1ccccc1 (stereo not shown) [fluoxetine]
consumption of the reward ([1]; 15 mg/kg fluoxetine in drinking water from day 7, tested day 40, Veh vs Flx p=0.033): modified
latency to travel across the apparatus and reach the food reward ([1]; 15 mg/kg fluoxetine in drinking water from day 7, tested day 40, Veh vs Flx p=0.042): decreased three-fold
number of center-crossings [2]: did not significantly affect
nest-building score (ability to build a nest within 5 hours) [3]: no effect
